Data reported in patent US20230031406A1, “COMPOUNDS AND COMPOSITIONS FOR TREATING CONDITIONS ASSOCIATED WITH NLRP ACTIVITY” (Novartis AG, priority 2018, published 2023).

How the values were obtained:
[1] = tested on: PMA-differentiated THP-1 cells; assay: IL-1β production in PMA-differentiated THP-1 cells stimulated with gramicidin (hTHP-1 assay containing 2% fetal bovine serum; Procedures 1 and 2); assay type: cell-based, human
Outline: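 Secreted IL-1β, read by HTRF, after gramicidin challenge (5 μM, 2 h) of THP-1 cells differentiated with PMA (20 ng/ml, 16-18 h) and plated at 50,000 cells/well in 2% FBS medium. Compounds, 0.0017-100 μM final with 0.37% DMSO, were added 1 h before stimulation.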

[2] = tested on: PMA-differentiated THP-1 cells; assay: hTHP-1 assay containing 10% fetal bovine serum (IL-1β production, Tables B5 and B6); assay type: cell-based, human
Outline: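 IL-1β release from PMA-differentiated THP-1 macrophage-like cells was triggered by 5 μM gramicidin for 2 h after 1 h compound exposure, then measured by HTRF.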

CC(C)n1cc(F)c(S(N)(=O)=NC(=O)Nc2c3c(nc(C4CC4)c2C2CC2)CCC3)n1 (single isomer, unassigned) [Compound 1103b, (S) or (R)-N′-((2,3-dicyclopropyl-6,7-dihydro-5H-cyclopenta[b]pyridin-4-yl)carbamoyl)-4-fluoro-1-isopropyl-1H-pyrazole-3-sulfonimidamide] was tested. Which IC50 ([1]; read-out: hTHP-1 IC50 in 2% FBS, hTHP-1 assay containing 2% fetal bovine serum, Table B5, listed as 816) did it give?
Its IC50 is 5 to 30 µM.

What about the IC50 ([2]; read-out: hTHP-1 IC50 in 10% FBS, hTHP-1 assay containing 10% fetal bovine serum, Table B5, listed as 816) of the same compound?
The IC50 was 1 to 5 µM.

What does the source list for CC(C)n1cc(F)c(S(N)(=O)=NC(=O)Nc2c3c(nc4c2CCC42CC2)CCC3)n1 (single isomer, unassigned) [Compound 1102a, (R) or (S)-4-Fluoro-1-isopropyl-N′-((1′,5′,6′,7′-tetrahydro-2′H-spiro [cyclopropane-1,3′-dicyclopenta[b,e]pyridin]-8′-yl)carbamoyl)-1H-pyrazole-3-sulfonimidamide]?
IC50 ([1]; read-out: hTHP-1 IC50 in 2% FBS, hTHP-1 assay containing 2% fetal bovine serum, Table B5, listed as 813): 0.008 to 0.04 µM; IC50 ([2]; read-out: hTHP-1 IC50 in 10% FBS, hTHP-1 assay containing 10% fetal bovine serum, Table B5, listed as 813): 0.008 to 0.04 µM

Which results are given for CCn1cc(F)c(S(N)(=O)=NC(=O)Nc2c(C)c(C(F)(F)F)nc3c2C(C)CC3)n1 (single isomer, unassigned) [Compound 1100d, (S, S) or (S, R)-N′-((3,5-dimethyl-2-(trifluoromethyl)-6,7-dihydro-5H-cyclopenta[b]pyridin-4-yl)carbamoyl)-1-ethyl-4-fluoro-1H-pyrazole-3-sulfonimidamide]?
IC50 ([1]; Homo sapiens, THP-1, read-out: hTHP-1 IC50 in 2% FBS, 2% fetal bovine serum, Table B5, value printed as a bound, not a class symbol): > 30 µM; IC50 ([2]; Homo sapiens, THP-1, read-out: hTHP-1 IC50 in 10% FBS, 10% fetal bovine serum, Table B5, value printed as a bound, not a class symbol): > 30 µM

Which IC50 ([1]; read-out: hTHP-1 IC50 in 2% FBS, hTHP-1 assay containing 2% fetal bovine serum, Table B5, listed as 822) does the source give for CCn1cc(F)c(S(N)(=O)=NC(=O)Nc2c(C)c(C(F)(F)F)nc3c2CC(C)C3)n1 (single isomer, unassigned) [Compound 1101b, (S, R) or (S, S)-N′-((3,6-dimethyl-2-(trifluoromethyl)-6,7-dihydro-5H-cyclopenta[b]pyridin-4-yl)carbamoyl)-1-ethyl-4-fluoro-1H-pyrazole-3-sulfonimidamide] here?
The IC50 was 1 to 5 µM.

What about the IC50 ([2]; read-out: hTHP-1 IC50 in 10% FBS, hTHP-1 assay containing 10% fetal bovine serum, Table B5, listed as 822) of the same compound?
The IC50 was 1 to 5 µM.

Which results are given for CCn1cc(F)c([S@](N)(=O)=NC(=O)Nc2c(C)c(C(F)(F)F)nc3c2[C@H](C)CC3)n1 (single isomer, unassigned) [Compound 1100a, (R, R) or (R, S)-N′-((3,5-dimethyl-2-(trifluoromethyl)-6,7-dihydro-5H-cyclopenta[b]pyridin-4-yl)carbamoyl)-1-ethyl-4-fluoro-1H-pyrazole-3-sulfonimidamide]?
IC50 ([1]; Homo sapiens, THP-1, read-out: hTHP-1 IC50 in 2% FBS, hTHP-1 assay containing 2% fetal bovine serum, Table B5): 5 to 30 µM; IC50 ([2]; Homo sapiens, THP-1, read-out: hTHP-1 IC50 in 10% FBS, hTHP-1 assay containing 10% fetal bovine serum, Table B5): 1 to 5 µM
